System: Leishmania tropica
Experiment: Growth inhibition of multidrug-resistant Leishmania tropica overexpressing P-glycoprotein-like transporter at 60 uM
Assay type: functional
Design: scale not given: the % may be the effect or the level left

Work on `CC(=O)OC[C@]12[C@H](OC(C)=O)C(=O)[C@@H]3[C@@H](OC(C)=O)[C@]1(O[C@@]3(C)COC(C)=O)[C@@](C)(O)[C@@H](OC(C)=O)[C@H](OC(C)=O)[C@@H]2OC(C)=O` yielded an Activity of 28%.

Reference: ChEMBL document CHEMBL1159375, “Absolute configuration and complete assignment of 13C NMR data for new sesquiterpenes from Maytenus chiapensis” (2003)
